From patent US12054485B2, “Substituted imidazoquinolines” (BIONTECH SE, priority 2017, dated 2024)

Assays:
[1] = system: Human PBMCs; assay: IFN-α induction by TLR agonists in human PBMCs (Luminex); type: cell-based
Experimental: 1) IFN-α Induction Assay—IFN-α induction by TLR Agonists in Human PBMCs
Abbreviations: BSA=bovine serum albumine; PBS=phosphate buffer pH 7.4; PE=phycoerythrin; EDC=1-ethyl-3-(3-dimethylaminopropyl)carbodiimide hydrochloride.
Materials and Devices: Bio Plex 200 Luminex device, and BioPlex Manager software; MultiScreen Filter Plates (Millipore, MABVN1250); low binding reaction vials 1.5 ml (Sarstedt, 72.706.600); Activation Buffer: 0.1M Na-dihydrogen phosphate, 0.1M Di-Na hydrogen phosphate pH 6.2; Sulfo-NHS (N-hydroxysulfosuccinimide) solution: 50 mg/ml in water (freshly prepared); EDC solution: 50 mg/ml in water (freshly prepared); Coupling Buffer: PBS; Washing Buffer: PBS+0.05% Tween20; Blocking Buffer: PBS+10 mg/ml BSA+0.05% sodium azide; Assay Buffer: PBS+10 mg/ml BSA;
Other materials and devices (pipets, reaction vessels, shaker, etc.) were standard lab equipment; water was MilliQ grade quality, buffers were sterile filtered before use.
(Pre-)Incubation of Cells:
In each well of a 96-well U-bottom plate 200,000 PBMCs were pre-incubated in medium (RPMI1640-Gibco #61870-044+10% FBS+1% L-glutamine) for 5 hours at 37° C. and 5% CO2 before the compounds of the present invention or controls were added, respectively. Upon addition of compounds of the present invention or controls, the cells are incubated for another 24 h at 37° C. and 5% CO2.
Luminex assay, Step 1: Coupling of antibody to beads: • transfer a suspension (beads are stored in buffer as provided by manufacturer) of about 5 million MicroPlex Microspheres (=beads) into a low binding reaction vial • centrifuge bead suspension for 1 min at 10,000 g, discard supernatant and resuspend pellet in 160 μl Activation Buffer, repeat once • add 20 μl Sulfo-NHS solution and 20 μl EDC solution, vortex • incubate for 20 min in the absence of light • centrifuge bead suspension for 1 min at 10,000 g, discard supernatant and resuspend pellet in 500 μl Coupling Buffer, repeat once • add capture antibody (CaptureAK eBioscience #BMS160, 5 μg per 1 Mio beads) • incubate 2 h at RT in the absence of light while swaying • centrifuge bead suspension for 1 min at 10,000 g, discard supernatant and resuspend pellet in 500 μl Washing Buffer, repeat once • centrifuge bead suspension for 1 min at I0,000 g, discard supernatant and resuspend pellet in 100 μl Blocking Buffer
Luminex assay, Step 2: Measurement • add 100 μlAssay Buffer into each filter plate well (seal any unused wells with adhesive tape), then remove buffer • add about 2,000 beads per well per analyte (per analyte, a different bead type with distinct fluorescence color is used), suspended in […] of Assay Buffer • remove buffer and wash twice with 100 μl Washing Buffer per well • per well, add 50 μl sample solution from the (pre-)incubation step (cell supernatant), or Standard (IFN-α standard eBioscience #BMS216MST—concentration gradient, highest standard concentration 2500 pg/ml) or Assay Buffer (as blanks) • shake plate • incubate plate for 2 h at RT in the absence of light, while swaying the plate • wash three times with 100 μl Washing Buffer per well • add 25 μl antibody detection mix (DetectionAK eBioscience #BMS1016BT diluted 1:1000) in Assay Buffer per well, then vortex plate • incubate plate for 1 h at RT in the absence of light, while swaying the plate • wash three times with 100 μl Washing Buffer per well • add 50 μl Streptavidin/PE (diluted 1:200 in Assay Buffer) per well, then vortex plate • incubate plate for 10 min at RT in the absence of light, while swaying the plate • wash three times with 100 μl Washing Buffer per well • add 100 μl Assay Buffer per well, then vortex plate • start Luminex measurement according to manufacturer's instructions, measuring at least 50 beads per well per analyte
The compounds were tested at 8 different concentrations (1 μM, 0.3 μM, 0.1 μM, 0.03 μM, 0.01 μM 0.003 μM, 0.001 μM, 0.0003 μM) using a half-logarithmic dilution. […]

[2] = molecular target: T1, human TLR7 (Homo sapiens, UniProt Q9NYK1); assay: TLR7 reporter gene assay (HEK-Blue-hTLR7, NFkB/AP-1 inducible SEAP); type: cell-based
T1 construct: host or cells: HEK-Blue-hTLR7
T1 sequence (Q9NYK1 27-1049): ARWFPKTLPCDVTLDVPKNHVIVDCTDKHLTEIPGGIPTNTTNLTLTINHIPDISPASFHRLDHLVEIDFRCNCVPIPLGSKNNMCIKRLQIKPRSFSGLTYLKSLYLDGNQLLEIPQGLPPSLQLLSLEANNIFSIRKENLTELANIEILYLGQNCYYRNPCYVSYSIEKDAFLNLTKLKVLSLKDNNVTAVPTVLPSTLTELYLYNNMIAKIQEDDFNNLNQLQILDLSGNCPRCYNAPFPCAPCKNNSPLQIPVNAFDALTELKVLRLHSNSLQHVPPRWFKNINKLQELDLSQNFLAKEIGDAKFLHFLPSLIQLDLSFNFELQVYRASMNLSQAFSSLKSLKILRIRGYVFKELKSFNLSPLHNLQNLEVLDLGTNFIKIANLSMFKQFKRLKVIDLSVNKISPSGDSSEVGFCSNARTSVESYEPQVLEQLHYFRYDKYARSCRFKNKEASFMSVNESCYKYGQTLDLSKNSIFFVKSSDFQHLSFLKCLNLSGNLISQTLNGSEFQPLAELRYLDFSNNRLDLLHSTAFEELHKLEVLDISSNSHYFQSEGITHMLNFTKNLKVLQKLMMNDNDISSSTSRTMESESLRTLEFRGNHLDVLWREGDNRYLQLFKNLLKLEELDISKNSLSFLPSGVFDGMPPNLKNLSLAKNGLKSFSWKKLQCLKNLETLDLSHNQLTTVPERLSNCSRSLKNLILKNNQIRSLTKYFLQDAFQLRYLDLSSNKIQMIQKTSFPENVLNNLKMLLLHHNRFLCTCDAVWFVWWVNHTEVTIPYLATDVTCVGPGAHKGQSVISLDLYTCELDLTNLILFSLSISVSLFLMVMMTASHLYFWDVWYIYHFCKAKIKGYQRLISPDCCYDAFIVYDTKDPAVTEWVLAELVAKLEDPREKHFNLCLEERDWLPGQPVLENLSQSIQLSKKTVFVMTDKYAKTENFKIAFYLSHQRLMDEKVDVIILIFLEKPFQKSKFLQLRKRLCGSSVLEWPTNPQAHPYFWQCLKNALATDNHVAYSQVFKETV
Experimental: 2) TLR Stimulation Assay:
Compounds are tested for stimulation of human TLR7 and TLR8, respectively, via reporter gene expression analyzed in a cell line stably transfected with human TLR7 and TLR8, respectively, and coexpressing an NFkB/AP-1 inducible SEAP reporter gene. Stimulation with a TLR ligand leads to NFkB/AP-1 activation and upregulation and secretion of SEAP, which can be measured in the supernatant with QuantiBlue™ detection system (InvivoGen).
Cell lines used were either HEK-Blue-hTLR7 (InvivoGen #hkb-htlr7) or HEK-Blue-hTLR8 (InvivoGen #hkb-htlr8). Cells were cultured following manufacturer's instructions.
Assay: • prepare cell suspensions of each cell line with Nv=0.11×10^6 cells/ml in medium (DMEM 4.5 g/l Glucose, 2-4 mM L-glutamine+10% FBS) without antibiotics (Nv=number of living cells) • add 180 μl of the suspensions per well of a 96 well flat bottom cell culture plates (coster, #3506) • incubate the plates overnight at 37° C. and 5% CO2 • prepare samples and controls as solutions in DMSO: R848, CL075 (TLR 7/8 agonist by InvivoGen) and Guardiquimod each to a final concentration of 10 μM, ODN2006 (InvivoGen) and ODN2216 (InvivoGen) each to a final concentration 2 μM; • compounds of the invention are applied in dilution series to final concentrations of 30, 10, 3, 1, etc. μM • add 20 μl diluted compounds and controls (see above) to the wells • incubate plates for 20-24 h at 37° C. and 5% CO2 • prepare QuantiBlue™ (InvivoGen #10H19-MM) solution, following manufacturer's instructions: solubilize the powder of one pouch in 100 ml MilliQ grade water, heat at 37° C. in a water bath for about 30 min, filter the solution with a paper filter • add 100 μl prepared QuantiBlue™ solution in each well of a 96 well plate with flat bottom • add […] cell culture supernatant from the induced cells per well • incubate plates for 1 to 1.5 h at 37° C. (until an intense blue color has developed) • read OD at 620 nm with a plate reader • calculate EC50 from data points

[3] = comparative compounds with 2-methyltetrahydrofuran-3-yl at R3, Table 2
[4] = 24 h incubation, maximum of bell-shaped curve over 0.0003-1 μM, Table 1

SMILES	Maximum IFN-α release [1, 3]	Maximum IFN-α release [1, 4]	other results
CCNCc1nc2c(N)nc3ccccc3c2n1CCCCN(C(C)=O)C1CCOC1C (stereo not drawn) [3′]	360 pg/mL		
CCc1nc2c(N)nc3ccccc3c2n1CCCCN(C(C)=O)C1CCOC1C (stereo not drawn) [example III, 3-{acetyl[4-(4-amino-2-ethyl-1H-imidazo[4,5-c]quinolin-1-yl)butyl]amino}-2,5-anhydro-1,3,4-trideoxypentitol]			maximum IFN-α release relative to present Example 1 ([1]; % of the maximum IFN-α release of Example 1): about 50%; EC50 ([2]; HEK-Blue-hTLR7, read-out: EC50 in the TLR7 reporter gene assay): 0.44 µM; EC50 in TLR7 reporter gene assay relative to Example 1 ([2]; fold higher EC50 than Example 1): ten-fold higher
CCNCc1nc2c(N)nc3ccccc3c2n1CCCCN(C(C)=O)C1CCOCC1 [Example 3, N-(4-(4-Amino-2-((ethylamino)methyl)-1H-imidazo[4,5-c]quinolin-1-yl)butyl)-N-(tetrahydro-2H-pyran-4-yl)acetamide]		1070 pg/mL	
CCc1nc2c(N)nc3ccccc3c2n1CCCCN(C(N)=O)C1CCOCC1 [Example 2, 1-(4-(4-Amino-2-ethyl-1H-imidazo[4,5-c]quinolin-1-yl)butyl)-1-(tetrabydro-2H-pyran-4-yl)urea]		1250 pg/mL	
CCNCc1nc2c(N)nc3ccccc3c2n1CCCCN(C(N)=O)C1CCOC1C (stereo not drawn) [4′]	290 pg/mL		
COCCc1nc2c(N)nc3ccccc3c2n1CCCCN(C(C)=O)C1CCOC1C (stereo not drawn) [5′]	330 pg/mL		
COCCc1nc2c(N)nc3ccccc3c2n1CCCCN(C(N)=O)C1CCOCC1 [Example 6, 1-(4-(4-Amino-2-(2-methoxyethyl)-1H-imidazo[4,5-c]quinolin-1-yl)butyl)-1-(tetrahydro-2H-pyran-4-yl)urea]		1850 pg/mL	
CCNCc1nc2c(N)nc3ccccc3c2n1CCCCN(C(N)=O)C1CCOCC1 [Example 4, 1-(4-(4-Amino-2-((ethylamino)methyl)-1H-imidazo[4,5-c]quinolin-1-yl)butyl)-1-(tetrahydro-2H-pyran-4-yl)urea]		920 pg/mL	
COCCc1nc2c(N)nc3ccccc3c2n1CCCCN(C(C)=O)C1CCOCC1 [Example 5, N-(4-(4-Amino-2-(2-methoxyethyl)-1H-imidazo[4,5-c]quinolin-1-yl)butyl)-N-(tetrahydro-2H-pyran-4-yl)acetamide]		880 pg/mL	
CCc1nc2c(N)nc3ccccc3c2n1CCCCN(C(C)=O)C1CCOC1C (stereo not drawn) [1′]	930 pg/mL		
